{"source": "patent US20040059104A1", "about": "“Nucleotide mimics and their prodrugs” (priority 2002, published 2004)", "key": {"[1]": {"experiment": "Compound toxicity in CEM-SS cells (MTS staining)", "assay_type": "cell-based", "settings": "human, read-out: CEM-SS TC50", "protocol": "(§1) ollowing paper: Structure-Activity and Cross-Resistance unodeficiency Virus Type 1-Specific ckheit, Jr. et al., Antimicrobial Agents and s were evaluated in CEM-SS cell cultures V-1RF at an MOI of approximately 0.01. At he soluble tetrazolium-based dye MTS viability and quantify compound toxicity of metabolically active cells to yield a soluble analysis of cell viability and compound\n(§2) At assay termination, the assay plates were stained with the soluble tetrazolium-based dye MTS (CellTiter Reagent Promega) to determine cell viability and quantify compound toxicity. MTS is metabolized by the mitochondrial enzymes of metabolically active cells to yield a soluble formazan product, allowing the rapid quantitative analysis of cell viability and compound cytotoxicity. […] At termination of the assay, 20 μL of MTS reagent was added per well. The microtiter plates were then incubated 4-6 hrs at 37° C. for the HIV cytoprotection assay; the incubation intervals were chosen based on empirically determined times for optimal dye reduction. Adhesive plate sealers were used in place of the lids, the sealed plate was inverted several times to mix the soluble formazan product and the plate was read spectrophotometrically at 490 nm with a Molecular Devices Vmax plate reader."}, "Escherichia coli": {"tested_on": "Escherichia coli", "experiment": "Antimicrobial assay, minimal inhibitory concentration", "assay_type": "cell-based", "settings": "Escherichia coli, read-out: E. coli MIC"}, "in vitro": {"experiment": "in vitro", "settings": "bovine, serum, Half-Life, Serum Half-Lives of NTPs and AZT Triphosphate Mimics"}, "HIV-1RF": {"tested_on": "HIV-1RF", "experiment": "Anti-HIV-1 cytoprotection assay in CEM-SS cells", "assay_type": "cell-based", "settings": "Human immunodeficiency virus 1, 144 h; CEM-SS cells infected with HIV-1RF, MOI approximately 0.01, 6 days, MTS; read-out: CEM-SS IC50 (Anti-HIV Screening)", "protocol": "as §1\nEfficacy Evaluation in CEM-SS Cells Anti-HIV-1 Cytoprotection Assay\nCell Preparation—CEM-SS cells were passaged in T-75 flasks prior to use in the antiviral assay. On the day preceding the assay, the cells were split 1:2 to assure they were in an exponential growth phase at the time of infection. Total cell and viability quantification was performed using a hemacytometer and trypan blue exclusion. Cell viability was greater than 95% for the cells to be utilized in the assay. The cells were resuspended at 5×10^4 cells/ml in tissue culture medium and added to the drug-containing microtiter plates in a volume of 50 μl.\nVirus Preparation—The virus used for these tests was the lymphocytropic virus strain HIV-1RF. This virus was obtained from the NIH AIDS Research and Reference Reagent Program and was grown in CEM-SS cells for the production of stock virus pools. For each assay, a pre-titered aliquot of virus was removed from the freezer (−80° C.) and allowed to thaw slowly to room temperature in a biological safety cabinet. The virus was resuspended and diluted into tissue culture medium such that the amount of virus added to each well in a volume of 50 μl was the amount determined to give between 85 to 95% cell killing at 6 days post-infection.\nas §2"}}, "note": "Read-outs that look alike come from different tables or passages of the source.", "data": [{"smiles": "[BH3-][P+](O)(OCC1OC(n2cc(C)c(=O)[nH]c2=O)CC1N=[N+]=[N-])OP(=O)(O)C(F)(F)P(=O)(O)O", "note": "(single isomer, unassigned) [Compound 27-isomer 1, 3′-Azido-3′-deoxythymidine 5′-α-P-borano-β,γ-(difluoromethylene)triphosphate]", "values": [{"measurement": "CC50", "setting": "[1]", "result": "> 200", "unit": "µM"}, {"measurement": "MIC", "setting": "Escherichia coli; overnight at 37° C., tested 0-200 μg/ml, NA = Not active", "result": 60, "unit": "µg/mL"}, {"measurement": "MIC", "setting": "Escherichia coli; value in brackets beside the μg/ml value", "result": 111, "unit": "µM"}, {"measurement": "half-life at 500 μM", "setting": "in vitro", "result": "> 48", "unit": "h"}, {"measurement": "IC50", "setting": "HIV-1RF", "result": 1.64, "unit": "µM"}]}]}
